Measurements reported in article PMC9866191, “Novel 9-Benzylaminoacridine Derivatives as Dual Inhibitors of Phosphodiesterase 5 and Topoisomerase II for the Treatment of Colon Cancer” (Molecules, 2023).

Columns and labels:
[1] = target: T1, PDE5A (Homo sapiens, UniProt O76074); assay: Phosphodiesterase 5 HTRF cGMP assay; assay type: biochemical; settings: for IC50: means ± S.D. (n = 4), read-out: PDE5 IC50; for inhibition at 10 µM: read-out: PDE5 % Inhibition at 10 μM
T1 construct: purchased BPS Bioscience, San Diego, CA, USA
Protocol: All the synthesized acridine derivatives were tested for their in vitro ability to inhibit PDE5A at a screening dose of 10 µM.
The enzyme activities of phosphodiesterase 5 (PDE5) were measured using an HTRF cGMP assay kit (Cisbio, Codolet, France). […] Afterward, the HTRF reagent (cGMP-d2 and anti-cGMP-cryptate) was added for 1 h at 25 °C, and PDE activity was assayed on an HTRF reader (Tecan Infinite F200 Pro).

[2] = system: panel of 60 human tumor cell lines; assay: NCI 60-cell line one-dose screen (mean); assay type: cell-based; settings: mean of the 60 cell lines, single dose 10^−5 M, read-out: Mean % Growth Inhibition
Method in brief: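 Primary NCI screen: one concentration (10^−5 M) applied to all 60 human cancer cell lines from 9 tissue types; growth inhibition reported as a percentage.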

[3] = system: CCRF-CEM; assay: NCI-60 one-dose screen; assay type: cell-based; settings: Homo sapiens, Leukemia panel, single dose 10^−5 M, read-out: Growth inhibition %
[4] = system: A498; assay: NCI-60 one-dose screen; assay type: cell-based; settings: Homo sapiens; A498, Renal Cancer panel; single dose 10^−5 M; read-out: Growth inhibition %
[5] = system: HCT-15; assay: NCI-60 one-dose screen; assay type: cell-based; settings: Homo sapiens; HCT-15, Colon Cancer panel; single dose 10^−5 M; read-out: Growth inhibition %
[6] = system: K-562; assay: NCI-60 one-dose screen; assay type: cell-based; settings: Homo sapiens, K562; K-562, Leukemia panel; single dose 10^−5 M; read-out: Growth inhibition %
[7] = system: KM12; assay: NCI-60 one-dose screen; assay type: cell-based; settings: Homo sapiens; KM12, Colon Cancer panel; single dose 10^−5 M; read-out: Growth inhibition %
[8] = system: MDA-MB-231/ATCC; assay: NCI-60 one-dose screen; assay type: cell-based; settings: Homo sapiens, Breast Cancer panel, single dose 10^−5 M, read-out: Growth inhibition %
[9] = system: MDA-MB-435; assay: NCI-60 one-dose screen; assay type: cell-based; settings: Homo sapiens; MDA-MB-435, Melanoma panel; single dose 10^−5 M; read-out: Growth inhibition %
[10] = system: MOLT-4; assay: NCI-60 one-dose screen; assay type: cell-based; settings: Homo sapiens; MOLT-4, Leukemia panel; single dose 10^−5 M; read-out: Growth inhibition %
[11] = system: NCI-H226; assay: NCI-60 one-dose screen; assay type: cell-based; settings: Homo sapiens; NCI-H226, Non-small cell lung panel; single dose 10^−5 M; read-out: Growth inhibition %
[12] = system: NCI-H460; assay: NCI-60 one-dose screen; assay type: cell-based; settings: Homo sapiens; NCI-H460, Non-small cell lung panel; single dose 10^−5 M; read-out: Growth inhibition %
[13] = system: OVCAR-3; assay: NCI-60 one-dose screen; assay type: cell-based; settings: Homo sapiens; OVCAR-3, Ovarian Cancer panel; single dose 10^−5 M; read-out: Growth inhibition %
[14] = system: OVCAR-5; assay: NCI-60 one-dose screen; assay type: cell-based; settings: Homo sapiens; OVCAR-5, Ovarian Cancer panel; single dose 10^−5 M; read-out: Growth inhibition %
[15] = system: OVCAR-8; assay: NCI-60 one-dose screen; assay type: cell-based; settings: Homo sapiens; OVCAR-8, Ovarian Cancer panel; single dose 10^−5 M; read-out: Growth inhibition %
[16] = system: RPMI-8226; assay: NCI-60 one-dose screen; assay type: cell-based; settings: Homo sapiens; RPMI-8226, Leukemia panel; single dose 10^−5 M; read-out: Growth inhibition %
[17] = system: RXF 393; assay: NCI-60 one-dose screen; assay type: cell-based; settings: Homo sapiens; RXF 393, Renal Cancer panel; single dose 10^−5 M; read-out: Growth inhibition %
[18] = system: SF-539; assay: NCI-60 one-dose screen; assay type: cell-based; settings: Homo sapiens; SF-539, CNS Cancer panel; single dose 10^−5 M; read-out: Growth inhibition %
[19] = system: SK-MEL-28; assay: NCI-60 one-dose screen; assay type: cell-based; settings: Homo sapiens; SK-MEL-28, Melanoma panel; single dose 10^−5 M; read-out: Growth inhibition %
[20] = system: SK-OV-3; assay: NCI-60 one-dose screen; assay type: cell-based; settings: Homo sapiens; SK-OV-3, Ovarian Cancer panel; single dose 10^−5 M; read-out: Growth inhibition %
[21] = system: SNB-19; assay: NCI-60 one-dose screen; assay type: cell-based; settings: Homo sapiens; SNB-19, CNS Cancer panel; single dose 10^−5 M; read-out: Growth inhibition %
[22] = system: TK-10; assay: NCI-60 one-dose screen; assay type: cell-based; settings: Homo sapiens; TK-10, Renal Cancer panel; single dose 10^−5 M; read-out: Growth inhibition %
[23] = system: UO-31; assay: NCI-60 one-dose screen; assay type: cell-based; settings: Homo sapiens; UO-31, Renal Cancer panel; single dose 10^−5 M; read-out: Growth inhibition %
[24] = system: SF-268; assay: NCI-60 one-dose screen; assay type: cell-based; settings: Homo sapiens; SF-268, CNS Cancer panel; single dose 10^−5 M; read-out: Growth inhibition %
[25] = system: LOX IMVI; assay: NCI-60 one-dose screen; assay type: cell-based; settings: Homo sapiens, Melanoma panel, single dose 10^−5 M, read-out: Growth inhibition %
[26] = system: IGROV1; assay: NCI-60 one-dose screen; assay type: cell-based; settings: Homo sapiens, IGROV-1; IGROV1, Ovarian Cancer panel; single dose 10^−5 M; read-out: Growth inhibition %
[27] = system: HCT-116; assay: MTT cell proliferation assay, HCT-116; settings: for % Inhibition at 10 µM: 72 h MTT, means ± SD; for IC50: read-out: IC50 μM, 72 h MTT, means ± SD, three experiments
[28] = system: CCD-966SK; assay: MTT cell proliferation assay, CCD-966SK; settings: CCD966SK skin fibroblast, 72 h MTT
Protocol: In the MTT assay, 96-well culture plates were used. A total of 7 × 10^4 cells per well were seeded, and test materials were added to the cells at various concentrations [47, 48]. Human cancer and non-cancer cell lines were purchased commercially from the American Type Culture Collection (ATCC). After 72 h, the cytotoxicity of the compounds and paclitaxel (as a positive control group) was detected using the MTT method (thiazolyl blue tetrazolium bromide, Sigma-M2128). Absorbance values at 570 and 620 nm (OD = OD570–OD620) were measured using an ELISA reader (Anthos Labtec Instruments, Salzburg, Austria).

SMILES | IC50 [1] [µM] | inhibition at 10 µM [1] [%] | inhibition at 10 µM [2] [%] | inhibition at 10 µM [3] [%] | inhibition at 10 µM [4] [%] | inhibition at 10 µM [5] [%] | inhibition at 10 µM [6] [%] | inhibition at 10 µM [7] [%] | inhibition at 10 µM [8] [%] | inhibition at 10 µM [9] [%] | inhibition at 10 µM [10] [%] | inhibition at 10 µM [11] [%] | inhibition at 10 µM [12] [%] | inhibition at 10 µM [13] [%] | inhibition at 10 µM [14] [%] | inhibition at 10 µM [15] [%] | inhibition at 10 µM [16] [%] | inhibition at 10 µM [17] [%] | inhibition at 10 µM [18] [%] | inhibition at 10 µM [19] [%] | other results
Fc1ccccc1CNc1c2ccccc2nc2ccccc12 [Compound 8, Acridin-9-yl-(2-fluorobenzyl)-amine] | 7.16 ± 2.75 | 57.5 ± 6.43 | 56.5 | 54 | 89.1 | 70.3 | 85.8 | 57.8 | 46 | 43.8 | 82.7 | 43.6 | 86.5 | 35.9 | 48.8 | 68.9 | 87.7 | 51.2 | 68.9 | 15.9 | inhibition at 10 µM [20]: 49.1%; inhibition at 10 µM [21]: 56.1%; inhibition at 10 µM [22]: 41.8%; inhibition at 10 µM [23]: 72.3%; inhibition at 10 µM [24]: 20.1%; inhibition at 10 µM [25]: 73.9%; inhibition at 10 µM [26]: 63.4%; % Inhibition at 10 µM [27]: 66.44 ± 0.80%; IC50 [27]: 3.05 ± 0.15 µM; % Inhibition at 10 µM [28]: 42.52 ± 2.0%
Fc1cccc(CNc2c3ccccc3nc3ccccc23)c1 [Compound 9, Acridin-9-yl-(3-fluorobenzyl)-amine] | 7.49 ± 2.2 | 55.9 ± 5.78 | 64.2 | 53.7 | 113 | 77.1 | 84.3 | 51.4 | 69.4 | 51.1 | 85.1 | 49.4 | 87.3 | 33 | 56.2 | 64 | 89.9 | 67.2 | 73.1 | 21.5 | inhibition at 10 µM [20]: 48.9%; inhibition at 10 µM [21]: 64.1%; inhibition at 10 µM [22]: 35.9%; inhibition at 10 µM [23]: 76%; inhibition at 10 µM [24]: 37.9%; inhibition at 10 µM [25]: 87.7%; inhibition at 10 µM [26]: 74.4%; % Inhibition at 10 µM [27]: 57.06 ± 1.36%; IC50 [27]: 7.3 ± 0.33 µM; % Inhibition at 10 µM [28]: 42.74 ± 2.09%
Fc1ccc(CNc2c3ccccc3nc3ccccc23)cc1 [Compound 10, Acridin-9-yl-(4-fluorobenzyl)-amine] | > 10 | 47 ± 7.06 | 72.3 | 74 | 102 | 82.4 | 95.2 | 71.7 | 61.7 | 65.2 | 91.3 | 48.2 | 91.2 | 61.3 | 61.5 | 77.7 | 100 | 99.8 | 86.9 | 31.8 | inhibition at 10 µM [20]: 60%; inhibition at 10 µM [21]: 67.6%; inhibition at 10 µM [22]: 69.8%; inhibition at 10 µM [23]: 86.5%; inhibition at 10 µM [24]: 46.8%; inhibition at 10 µM [25]: 90.6%; inhibition at 10 µM [26]: 78.1%; % Inhibition at 10 µM [27]: 67.57 ± 0.29%; IC50 [27]: 2.75 ± 0.04 µM; % Inhibition at 10 µM [28]: 52.93 ± 1.00%; IC50 ([28]; read-out: IC50 μM): 9.26 ± 0.21 µM
Clc1ccccc1CNc1c2ccccc2nc2ccccc12 [Compound 11, Acridin-9-yl-(2-chlorobenzyl)-amine] | 4.33 ± 2.35 | 87.3 ± 3.68 | 78.4 | 89.3 | 106 | 86.4 | 94.7 | 78 | 71 | 72.8 | 94.9 | 61.1 | 91.2 | 46.4 | 67.4 | 76.2 | 127 | 85 | 93.8 | 49.5 | inhibition at 10 µM [20]: 45.1%; inhibition at 10 µM [21]: 74.2%; inhibition at 10 µM [22]: 57.5%; inhibition at 10 µM [23]: 82.5%; inhibition at 10 µM [24]: 53.4%; inhibition at 10 µM [25]: 95.2%; inhibition at 10 µM [26]: 82.2%; % Inhibition at 10 µM [27]: 63.49 ± 1.20%; IC50 [27]: 7.13 ± 0.24 µM; % Inhibition at 10 µM [28]: 36.77 ± 3.49%
Clc1cccc(CNc2c3ccccc3nc3ccccc23)c1 [Compound 12, Acridin-9-yl-(3-chlorobenzyl)-amine] | 6.29 ± 1.18 | 62.2 ± 4.94 | 73 | 81.9 | 103 | 86 | 95 | 59.2 | 70.6 | 53.4 | 98.9 | 52 | 85.8 | 42.3 | 67.6 | 68.9 | 124 | 81 | 90.7 | 33.8 | inhibition at 10 µM [20]: 36.1%; inhibition at 10 µM [21]: 73.6%; inhibition at 10 µM [22]: 47.9%; inhibition at 10 µM [23]: 84%; inhibition at 10 µM [24]: 39.4%; inhibition at 10 µM [25]: 98.2%; inhibition at 10 µM [26]: 83.5%; % Inhibition at 10 µM [27]: 63.40 ± 7.54%; IC50 [27]: 4.84 ± 0.05 µM; % Inhibition at 10 µM [28]: 45.43 ± 0.42%
